Assay results: patent US8071117B2, “Pheromones” (East Malling Research Limited, priority 2004, dated 2011)
Entries after “also recorded” stand apart in the source; their conditions may differ.

What was measured:
[1] = test system: male midge EAG preparation (raspberry cane midge); experiment: GC-EAG analysis with male midge EAG preparation; parameters: species or system Resseliella theobaldi; conditions: volatiles from female midges, polar GC column
Experimental: GC-EAG analyses were carried out with a […] GC (Agilent) fitted with capillary GC columns ([…]×0.32 mm i.d.) coated with polar (Wax10; Supelco) and non-polar (SPB 1; Supelco) phases. Injection was splitless (220° C.) and detection was by FID (250°). The oven temperature was programmed from 50° C. for 2 min, then at 10° C./min to 250° C. The GC column effluent was split (1:1) between the FID and a silanised glass T-piece in the column oven. Nitrogen (500 ml/min) was blown continuously over the EAG preparation and every 17 sec this was diverted through the T-piece for 3 sec, blowing the contents over the EAG preparation, as described by Cork et al. (1991).
Following experience working with other midge species, the EAG preparation was set up by suspending the whole insect between glass electrodes containing electrolyte (0.1 M potassium chloride with 10% polyvinylpyrrolidone added to reduce evaporation). The ends of both antennae were inserted into the recording electrode and the body into the reference electrode. The electrodes were inserted into silver/silver chloride electrodes held in micromanipulators on the portable EAG device developed by Syntech (INR-02; Syntech, Hilversum, The Netherlands).
Major female-specific component is at 14.24 min; 2-undecanone at 9.07 min, 2-acetoxyundecane at 9.77 min and 2-undecanol at 10.45 min. EAG signals at 13.2 min and 14.9 min are probably interference spikes.

male apple leaf midges = experiment: Field studies: sticky delta traps baited with synthetic lures in apple orchards; type: in vivo, Dasineura mali; conditions: for males caught: 19-27 May 2004; for attractiveness to male apple leaf midges (in words): in vivo; for average male midges caught: 5 replicate traps, 7 May-20 May 2004, East Malling; for average male apple leaf midges caught: 24-27 May 2004
Text: A) Sticky delta traps baited with the synthetic lures impregnated with racemic (Z)-13-acetoxy-8-heptadecen-2-one were deployed in apple orchards. Large numbers of male apple leaf midges were caught in traps baited with the compound dispensed into the atmosphere from rubber septa.

[2] = Rate of release of pheromone components from lures in laboratory wind tunnel; type: physicochemical; conditions: for Mean release rate: 27° C., 8 km/hr wind speed; for Mean ratio (release rate to the major component): major component = 100
Experimental: Measurements were made of the rates of release of the components from lures maintained in a laboratory wind tunnel at 27° C. and 8 km/hr wind speed. Volatiles were collected onto Porapak Q under same conditions for approximately 2 hours and the collections were analysed by Gas Chromatography with a flame ionisation detector using a polar column.
Release rates (ng/hr) and their ratios to the major component are shown.

[3] = test system: male raspberry cane midges; experiment: Field studies: sticky traps baited with rubber septum or polythene vial lures in raspberry plantations; type: in vivo, Resseliella theobaldi; conditions: for Mean total number males captured per trap (n): Log10(n + 1) / Mean total number males captured per trap (n): n: 11 May-7 Jun 2005, 10 plantations; for attractiveness to raspberry cane midge males (in words): field tests
Text: • A) Sticky traps baited with a rubber septum or polythene vial lure containing 100 microgrammes of racemic 2-acetoxy-5-undecanone were deployed in ten raspberry plantations at Belks farm, Otham, Kent, Beech Farm, West Peckham Kent and East Malling Research between 11 May and 31 May 2005. An average of 153 male raspberry cane midges were caught, per trap, compared to an average of 1 in similar traps not baited with a lure. […] Sticky traps baited with a rubber septa or polythene vial lure containing 100 micrograms of racemic 2-acetoxy-5-undecanone alone or in admixture with 30 micrograms of racemic 2-undecanol, 30 micrograms of undecanone and 30 micrograms of racemic 2-undecyl acetate were deployed in ten raspberry plantations, 4 at Belks farm, Otham, Kent, 4 at Beech Farm, West Peckham Kent and 2 at East Malling Research, Kent between 11 May and 7 Jun. 2005 in a randomised complete block experimental design with the 10 different plantations as blocks.
The baited traps caught an average of 201 male raspberry cane midges per trap compared to an average of 1 in similar traps not baited with a lure.

SMILES	EAG response [1]	Mean release rate ([2]; Interval 3 days, Septa) [ng/h]	Mean ratio (release rate to the major component) ([2]; Interval 3 days, Septa)	Mean release rate ([2]; Interval 3 days, Vial) [ng/h]	Mean ratio (release rate to the major component) ([2]; Interval 3 days, Vial)	Mean release rate ([2]; Interval 5 days, Vial) [ng/h]	Mean ratio (release rate to the major component) ([2]; Interval 5 days, Vial)	Mean release rate ([2]; Interval 11 days, Septa) [ng/h]	Mean ratio (release rate to the major component) ([2]; Interval 11 days, Septa)	Mean release rate ([2]; Interval 11 days, Vial) [ng/h]	Mean ratio (release rate to the major component) ([2]; Interval 11 days, Vial)	Mean release rate ([2]; Interval 25 days, Vial) [ng/h]	Mean ratio (release rate to the major component) ([2]; Interval 25 days, Vial)	Mean release rate ([2]; Interval 26 days, Septa) [ng/h]	Mean ratio (release rate to the major component) ([2]; Interval 26 days, Septa)	also measured
CCCCCCC(=O)CCC(C)OC(C)=O (single isomer, unassigned) [major female-specific component, 2-acetoxy-5-undecanone]	EAG response was always observed	–	–	–	–	–	–	–	–	–	–	–	–	–	–	–
CCCCC(CCC/C=C\CCCCCC(C)=O)OC(C)=O (racemic) [racemic (Z)-13-acetoxy-8-heptadecen-2-one, (Z)-13-acetoxy-8-heptadecen-2-one]	–	–	–	–	–	–	–	–	–	–	–	–	–	–	–	distance at which lures attract significant numbers of males (male apple leaf midges; 100 micrograms lure): at least 50 m; males caught (male apple leaf midges; 100 micrograms lure, 10 m from isolated infested orchard): 563; males caught (male apple leaf midges; 100 micrograms lure, 20 m from isolated infested orchard): 348; males caught (male apple leaf midges; 100 micrograms lure, 30 m from isolated infested orchard): 148; males caught (male apple leaf midges; 100 micrograms lure, 40 m from isolated infested orchard): 266; males caught (male apple leaf midges; 100 micrograms lure, 50 m from isolated infested orchard): 103; attractiveness to male apple leaf midges (in words) (male apple leaf midges): Large numbers; attractiveness to male apple leaf midges (in words) (male apple leaf midges; listed as 13-acetoxy-8-heptadecen-2-one): strongly attractive effect; attractiveness to male apple leaf midges (in words) (male apple leaf midges; listed as (Z)-13-acetoxy-8-heptadecen-2-one): racemic mixtures work exceptionally well; apple leaf midges attracted to a trap (male apple leaf midges; one test, in one day, released at approximately 1 ng/hr): 1,600; average male midges caught (male apple leaf midges; rubber septa 10 micrograms): 1201; average male midges caught (male apple leaf midges; rubber septa 100 micrograms): 4037; average male apple leaf midges caught (male apple leaf midges; rubber septum lure 1 microgram): 12; average male apple leaf midges caught (male apple leaf midges; rubber septum lure 3 microgram): 97; average male apple leaf midges caught (male apple leaf midges; rubber septum lure 10 microgram): 273
CCCCCCCCCC(C)=O [2-undecanone]	–	21.6	26	41.2	111	39.4	84	14.3	42	39.6	48	21.6	31	9.9	34	–
CCCCCCCCCC(C)O (racemic) [2-undecanol]	probably responses	20.2	25	19.5	52	21.1	45	27.4	81	29.4	36	17.4	25	7.4	25	–
CCCCCCCCCC(C)OC(C)=O (racemic) [2-undecyl acetate, 2-acetoxyundecane]	probably responses	30.8	38	23.8	64	20.6	44	14.5	43	31.7	39	21.8	31	8.9	30	–
CCCCCCC(=O)CCC(C)OC(C)=O (racemic) [racemic 2-acetoxy-5-undecanone, 2-acetoxy-5-undecanone]	–	81.8	100	37.1	100	47.0	100	33.8	100	81.8	100	69.8	100	29.5	100	average male raspberry cane midges caught per trap ([3]; 100 microgrammes lure, rubber septum or polythene vial, ten plantations, 11 May-31 May 2005): 153; Mean total number males captured per trap (n): Log10(n + 1) ([3]; Dispenser Septa): 1.969; Mean total number males captured per trap (n): n ([3]; Dispenser Septa): 218; Mean total number males captured per trap (n): Log10(n + 1) ([3]; Dispenser Vial): 2.042; Mean total number males captured per trap (n): n ([3]; Dispenser Vial): 230; attractiveness to raspberry cane midge males (in words) [3]: highly attractive; also recorded: attracted a significant number; attractiveness to raspberry cane midge males (in words) ([3]; listed as 2-acetoxy-5-undecanone): work exceptionally well
